PubChem BioAssay (NCI)
Where “and” joins values, the source holds several entries; their conditions need not be identical. Equal values may be shown once.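 Briefly, cells in 96-well plates were exposed to five compound concentrations for 48 h, and endpoints were estimated by linear interpolation. GI50 is the concentration that inhibits growth by half. TGI: total growth inhibition.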

Experiments:
Assay in all cases: NCI anticancer screen, dose series, 48 h
SW-620 colon = system: SW-620 colon
SR leukemia = system: SR leukemia
SF-268 CNS = system: SF-268 CNS
SF-539 CNS = system: SF-539 CNS
RPMI-8226 leukemia = system: RPMI-8226 leukemia
OVCAR-5 ovarian = system: OVCAR-5 ovarian
HCT-116 colon = system: HCT-116 colon
786-0 renal = system: 786-0 renal
UO-31 renal = system: UO-31 renal
NCI-H460 lung = system: NCI-H460 lung

| SMILES | GI50 (SW-620 colon) | TGI (SW-620 colon) | GI50 (SR leukemia) | TGI (SR leukemia) | GI50 (SF-268 CNS) | TGI (SF-268 CNS) | GI50 (SF-539 CNS) | TGI (SF-539 CNS) | GI50 (RPMI-8226 leukemia) | TGI (RPMI-8226 leukemia) | GI50 (OVCAR-5 ovarian) | TGI (OVCAR-5 ovarian) | GI50 (HCT-116 colon) | TGI (HCT-116 colon) | GI50 (786-0 renal) | TGI (786-0 renal) | GI50 (UO-31 renal) | GI50 (NCI-H460 lung) | TGI (NCI-H460 lung) | TGI (UO-31 renal) |
| --- | --- | --- | --- | --- | --- | --- | --- | --- | --- | --- | --- | --- | --- | --- | --- | --- | --- | --- | --- | --- |
| CCN(CC)CCOc1ccc2c(C)c(C(=O)OC)oc2c1C(=O)/C=C/c1ccc(OC)cc1 | 22.7 µM | 47.7 µM | 0.565 µM | 2.95 µM | 3.75 µM | > 28.1 µM | 16.3 µM | 32.2 µM | 1.58 µM | 4.42 µM | 2.32 µM | 6.99 µM | 57.8 µM | > 100 µM | 16.6 µM | > 45.7 µM | 1.45 µM | 3.65 µM | > 67.4 µM | – |
| O=C1CNN=C(Cn2nc(-c3ccccc3)c3ccccc3c2=O)N1 | – | > 100 µM | – | > 100 µM | – | > 100 µM | – | > 100 µM | – | > 100 µM | – | > 100 µM | – | > 100 µM | – | > 100 µM | – | – | > 100 µM | > 100 µM |
| CC1CC(C)C(C(O)CC2CC(=O)N(c3ccccc3)C(=O)C2)C(O)C1 (stereo unspecified) | – | > 100 µM | – | > 100 µM | – | > 100 µM | – | > 100 µM | – | > 100 µM | – | > 100 µM | – | > 100 µM | – | > 100 µM | – | – | > 100 µM | > 100 µM |
| COc1cc(/C=C2\C(=O)N(C)c3ccccc32)cc(OC)c1OC | 13.4 µM | > 100 µM | 6.26 µM | 39.7 µM | 0.793 µM | > 100 µM | 19.7 µM | > 100 µM | 9.67 µM | 49.1 µM | 25.2 µM | 70.2 µM | 11 µM | 30.7 µM | 25.3 µM | 97.4 µM | 22.7 µM | 10.8 µM | 64.1 µM | > 100 µM |
| COC(=O)c1ccc2[nH]c(O)c(C(=Nc3ccc(N(C)C(=O)CN4CCN(C)CC4)cc3)c3ccccc3)c2c1 | 0.795 µM | 4.27 µM | 0.224 µM | 10.2 µM | 1.33 µM | 7.94 µM | 0.44 µM | 1.72 µM | 1.92 µM | 8.34 µM | 2.63 µM | 6.8 µM | 0.343 µM | 3.06 µM | 1.07 µM | 2.83 µM | 1.24 µM | 1.87 µM | 5.09 µM | 3.86 µM |
| COc1cc(N(CCC#N)CCC#N)ccc1/C(N=Nc1ccc(C(=O)O)cc1)=N/NC(=O)c1cc(Br)ccc1O | > 150 µg/mL | > 150 µg/mL | 85.4 µg/mL | > 150 µg/mL | 29.9 µg/mL | 119 µg/mL | 85.8 µg/mL | > 150 µg/mL | 127 µg/mL | > 150 µg/mL | – | – | 62.8 µg/mL | > 150 µg/mL | 97.8 µg/mL | > 150 µg/mL | 107 µg/mL | 40.9 µg/mL | > 150 µg/mL | > 150 µg/mL |
| Fc1ccc(-c2nn3c(COc4ccc(Cl)cc4)nnc3s2)cc1Oc1ccccc1 | 48.4 µM | > 100 µM | > 100 µM | > 100 µM | 20 µM | 54.1 µM | 22.5 µM | > 55.5 µM | 13.9 µM | 29 µM | 24.5 µM | > 59.1 µM | 20.6 µM | > 52.3 µM | 14.2 µM | 30 µM | 24.4 µM | 23.9 µM | > 54.5 µM | > 100 µM |
| O=NN(CCCl)C(=O)NC1CCCCC1 | 18.3 µM and 44.1 µM | 45.9 µM and 108 µM and 98.7 µM | 9.14 µM | – | 21 µM and 33.6 µM | 57.9 µM and 120 µM and 235 µM | 16.4 µM and 33 µM | 34 µM and 84.4 µM and 124 µM | 27.1 µM | 40.8 µM and 122 µM and 73.9 µM | 247 µM | 168 µM and 363 µM | 21 µM | 50.2 µM and 105 µM | 32 µM | 33.9 µM and 65.9 µM and 68.6 µM | 22 µM and 52.9 µM | 24.1 µM and 67.7 µM | 69.2 µM and 124 µM and 187 µM | 54.6 µM and 168 µM and 206 µM |
| Cc1ccnc(Nc2ccc([N+](=O)[O-])c(NCCN3CCOCC3)n2)c1 | 0.00497 µM | > 100 µM | 0.00376 µM | 63.5 µM | 0.00926 µM and 0.059 µM | 42.4 µM | – | – | 0.0212 µM and 0.0269 µM | 24.5 µM | 0.074 µM | – | 0.00663 µM | – | 0.00821 µM and 0.0149 µM | 23.7 µM | 0.0461 µM | 0.00431 µM | > 100 µM | 30.7 µM |
| CC1(C)CC[C@]2(C(=O)O)CC[C@]3(C)C(=CC[C@@H]4[C@@]5(C)C/C(=C/c6ccco6)C(=O)C(C)(C)[C@@H]5CC[C@]43C)[C@@H]2C1 | 3.82 µM | 18.2 µM | 4.04 µM | 52.4 µM | 4.03 µM | 23 µM | 3.34 µM | 11.6 µM | 2.22 µM | 10.7 µM | 6.15 µM | 32.5 µM | 2.9 µM | 12 µM | 4.12 µM | 26.5 µM | 2.39 µM | 3.38 µM | 12.2 µM | 11.6 µM |
| CN(C)c1ccc(N=C2C=CC(=C(C#N)C#N)c3ccccc32)cc1 | – | 3.65 µM | – | 48.1 µM | – | 8.1 µM | – | 0.576 µM | – | 11.6 µM | – | 10.6 µM | – | 5.26 µM | – | 11.4 µM | – | – | 7.08 µM | 14.2 µM |
| CC1=C2[C@@H](CC1)[C@]1(C)O[C@@](C3CC3)(C[C@H]1OC(=O)CO)[C@H]2OC(=O)/C=C/c1ccccc1 | 19.1 µM | 36.7 µM | 13.5 µM | 39.2 µM | 4.03 µM | 23.1 µM | 16.6 µM | 31.6 µM | 19.8 µM | 54.4 µM | 17.5 µM | 36.5 µM | 16 µM | 30.9 µM | 3.19 µM | 25.7 µM | 0.636 µM | 16.6 µM | 33.1 µM | 20.8 µM |
| COC(=O)C1CCC(=O)N1/C(C)=N/NC(=O)Nc1ccc(Cl)c(Cl)c1 (stereo unspecified) | – | > 100 µM | – | > 100 µM | – | > 100 µM | – | > 100 µM | – | > 100 µM | – | – | – | > 100 µM | – | > 100 µM | – | – | > 100 µM | > 100 µM |
| CNCc1ccc(-c2[nH]c3cc(F)cc4c3c2CCNC4=O)cc1 | 16.1 µM | 60.4 µM | 9.51 µM | 44 µM | 22.8 µM | 66 µM | 15 µM | 30.6 µM | 23.7 µM | 73.3 µM | 19.1 µM | 55.5 µM | 13.1 µM | 38.6 µM | 19 µM | 41.5 µM | 22.2 µM | 14.9 µM | 42.3 µM | 76.2 µM |
| CN(C)c1ccc(C2CC(C)(O)Oc3cc4c(cc32)OCO4)cc1 (stereo unspecified) | – | > 100 µM | – | > 100 µM | – | > 100 µM | – | > 100 µM | – | 47.6 µM | – | > 100 µM | – | > 100 µM | – | > 100 µM | – | – | > 100 µM | 93.1 µM |
| CCSc1ncc(Br)c(Sc2nc(N)nc3nc[nH]c23)n1 | 17.7 µM | > 100 µM | 1.83 µM | > 100 µM | 3 µM | > 100 µM | 3.52 µM | 31.5 µM | 3.87 µM | > 100 µM | 5.83 µM | > 100 µM | 2.86 µM | > 100 µM | 3.22 µM | > 100 µM | 2.3 µM | 3.08 µM | 23.4 µM | > 100 µM |
| CCCCC[C@@H](C/C=C/CCC(=O)NC/C(=C/Cl)[C@H]1C(=O)C(C)(C)C(=O)[C@@H](C)[C@@]1(C)O)OC | 20.8 µM | 39.3 µM | 20.7 µM | 41.3 µM | 17.6 µM | 34.6 µM | 19.7 µM | 35.2 µM | 6.23 µM | 23 µM | 18.9 µM | 34.7 µM | 14 µM | 27.4 µM | 1.58 µM | 16.9 µM | 15.4 µM | 17.7 µM | 35.1 µM | 28.8 µM |
| Nc1nc(=S)c2[nH]cnc2[nH]1 | 0.564 µM and 3.6 µM and 1.18 µM | – | 0.0786 µM and 0.588 µM | > 24.7 µM and 15.7 µM | 0.525 µM and 0.926 µM | > 100 µM and 149 µM and 84 µM | 0.483 µM and 0.606 µM and 1.41 µM | 68.8 µM [middle of 4 runs] | 0.255 µM and 1.3 µM and 0.488 µM | 2.77 µM and 22.3 µM and 3 µM | 0.498 µM and 1.93 µM | > 100 µM and 46 µM and > 250 µM | 0.336 µM | – | 0.335 µM and 1.45 µM and 1.01 µM | – | 0.43 µM and 0.823 µM and 0.488 µM | 0.332 µM and 0.989 µM | 7 µM and 16.8 µM and 19.8 µM | – |
| C#Cc1cccc(NC(=O)C2CCCN(C(=O)CCl)C2)c1 (stereo unspecified) | 29.5 µM | > 82.5 µM | 24.2 µM | > 82.5 µM | > 82.5 µM | > 82.5 µM | > 82.5 µM | > 82.5 µM | > 82.5 µM | > 82.5 µM | > 82.5 µM | > 82.5 µM | 45.9 µM | > 82.5 µM | > 82.5 µM | > 82.5 µM | 12.9 µM | > 82.5 µM | > 82.5 µM | 26.4 µM |
| C[C@]12CCC3=NCCN3C1=CC[C@@H]1[C@@H]2CC[C@@]2(C)[C@H]1CC[C@]2(C)O | – | > 100 µM | – | > 100 µM | – | > 100 µM | – | 80 µM | – | 70.8 µM | – | > 100 µM | – | > 100 µM | – | 32.4 µM | – | – | > 100 µM | > 100 µM |
| COC(=O)c1sc(=NC(=S)N2CCCCC2)sc1C(=O)OC | – | > 100 µM | – | > 100 µM | – | > 100 µM | – | > 100 µM | – | > 100 µM | – | – | – | > 100 µM | – | > 100 µM | – | – | > 100 µM | > 100 µM |
